The source of these data is patent publication US20230012368A1 (Hoffmann-La Roche Inc., priority 2018, published 2023).

The structures appear in SMILES notation. Where a name gives a salt, the structure may show the parent alone.

The term IC90 denotes the concentration at which the effect reaches the 90% level.

In this experiment the test system is Acinetobacter baumannii ATCC 17978. Description: Antimicrobial susceptibility testing: 90% growth inhibitory concentration (IC90) determination. The experiment is classed as cell-based. The note with it: Acinetobacter baumannii, ATCC17978, 16 h, 90% growth inhibitory concentration; Acinetobacter baumannii ATCC17978; Iso-Sensitest broth, OD 600 nm over 16h; read-out: ATCC17978 IC90. The gist of the method:
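Compounds serially twofold diluted (e.g. 50 to 0.097 μM final) in Iso-Sensitest broth, inoculated at ~5×10^(5) CFU/ml, incubated at 35±2° C. OD600 read every 20 minutes over 16h. IC90 taken as concentration inhibiting 90% of growth during logarithmic phase.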
Regarding `CCc1cc(Nc2nccn3c(-c4ccc(OC)c(F)c4F)cnc23)ccc1C(=O)NCCNC(=O)[C@H](N)CCCNC(=N)N` [Example 125, N-[2-[[(2R)-2-amino-5-guanidino-pentanoyl]amino]ethyl]-4-[[3-(2,3-difluoro-4-methoxy-phenyl)imidazo[1,2-a]pyrazin-8-yl]amino]-2-ethyl-benzamide formate], the IC90 amounted to 120 nM. The result for `CCc1cc(Nc2nccn3c(-c4ccc(OC)c(F)c4Cl)cnc23)ccc1C(=O)NCCNC(=O)[C@@H](N)CCCNC(=N)N` [Example 126, N-[2-[[(2S)-2-amino-5-guanidino-pentanoyl]amino]ethyl]-4-[[3-(2-chloro-3-fluoro-4-methoxy-phenyl)imidazo[1,2-a]pyrazin-8-yl]amino]-2-ethyl-benzamide formate] reads 210 nM; that for `CCc1cc(Nc2nccn3c(-c4ccc(OCC#N)c(F)c4Cl)cnc23)ccc1C(=O)NCCNC(=O)[C@H](N)CCCNC(=N)N` [Example 127, N-[2-[[(2R)-2-amino-5-guanidino-pentanoyl]amino]ethyl]-4-[[3-[2-chloro-4-(cyanomethoxy)-3-fluoro-phenyl]imidazo[1,2-a]pyrazin-8-yl]amino]-2-ethyl-benzamide formate], 90 nM. Regarding `CCc1cc(Nc2nccn3c(-c4ccc(OC)c(F)c4F)cnc23)ccc1C(=O)NCCNC(=O)[C@@H](N)CCCNC1=NCCN1` [Example 128, N-[2-[[(2S)-2-amino-5-(4,5-dihydro-1H-imidazol-2-ylamino)pentanoyl]amino]ethyl]-4-[[3-(2,3-difluoro-4-methoxy-phenyl)imidazo[1,2-a]pyrazin-8-yl]amino]-2-ethyl-benzamide formate], the IC90 worked out at 240 nM.

As for `CCc1cc(Nc2nccn3c(-c4ccc(OC)c(F)c4Cl)cnc23)ccc1C(=O)NCCNC(=O)[C@H](N)CCCNC(=N)N` [Example 129, N-[2-[[(2R)-2-amino-5-guanidino-pentanoyl]amino]ethyl]-4-[[3-(2-chloro-3-fluoro-4-methoxy-phenyl)imidazo[1,2-a]pyrazin-8-yl]amino]-2-ethyl-benzamide formate], the IC90 came out at 250 nM. On to `CCc1cc(Nc2nccn3c(-c4ccc(Cl)c(F)c4F)cnc23)ccc1C(=O)NCCNC(=O)[C@H](N)CCCNC(=N)N` [Example 130, N-[2-[[(2R)-2-amino-5-guanidino-pentanoyl]amino]ethyl]-4-[[3-(4-chloro-2,3-difluoro-phenyl)imidazo[1,2-a]pyrazin-8-yl]amino]-2-ethyl-benzamide formate], for which the IC90 turned out to be 640 nM. Take `CCc1cc(Nc2nccn3c(-c4ccc(OC)c(F)c4F)cnc23)ccc1C(=O)NCCNC(=O)[C@@H](N)CCNC(=N)N` [Example 131, N-[2-[[(2S)-2-amino-4-guanidino-butanoyl]amino]ethyl]-4-[[3-(2,3-difluoro-4-methoxy-phenyl)imidazo[1,2-a]pyrazin-8-yl]amino]-2-ethyl-benzamide formate]: the IC90 is 90 nM. Turning to `CCc1cc(Nc2nccn3c(-c4ccc(OC(F)F)c(F)c4F)cnc23)ccc1C(=O)NCCNC(=O)[C@H](N)CCCNC(=N)N` [Example 132, N-[2-[[(2R)-2-amino-5-guanidino-pentanoyl]amino]ethyl]-4-[[3-[4-(difluoromethoxy)-2,3-difluoro-phenyl]imidazo[1,2-a]pyrazin-8-yl]amino]-2-ethyl-benzamide formate], the IC90 was determined as 230 nM. The result for `Cc1cc(Nc2nccn3c(-c4ccc(OCC#N)c(F)c4F)cnc23)ccc1C(=O)NCCNC(=O)[C@@H]1C[C@](C)(O)CN1` [Example 133, (2S,4S)-N-[2-[[4-[[3-[4-(cyanomethoxy)-2,3-difluoro-phenyl]imidazo[1,2-a]pyrazin-8-yl]amino]-2-methyl-benzoyl]amino]ethyl]-4-hydroxy-4-methyl-pyrrolidine-2-carboxamide formate] reads 90 nM. The result for `Cc1cc(Nc2nccn3c(-c4ccc(OCC#N)c(F)c4F)cnc23)ccc1C(=O)NCCCNC(=O)[C@@H]1C[C@](C)(O)CN1` [Example 134, (2S,4S)-N-[3-[[4-[[3-[4-(cyanomethoxy)-2,3-difluoro-phenyl]imidazo[1,2-a]pyrazin-8-yl]amino]-2-methyl-benzoyl]amino]propyl]-4-hydroxy-4-methyl-pyrrolidine-2-carboxamide formate] reads 80 nM; that for `CCc1cc(Nc2nccn3c(-c4ccc(OCC#N)c(F)c4F)cnc23)ccc1C(=O)NCCNC(=O)[C@@H](N)CO` [Example 135, N-[2-[[(2S)-2-amino-3-hydroxy-propanoyl]amino]ethyl]-4-[[3-[4-(cyanomethoxy)-2,3-difluoro-phenyl]imidazo[1,2-a]pyrazin-8-yl]amino]-2-ethyl-benzamide formate], 90 nM. Then `CCc1cc(Nc2nccn3c(-c4ccc(OCC#N)c(F)c4F)cnc23)ccc1C(=O)NCCNC(=O)CN` [Example 136, N-[2-[(2-aminoacetyl)amino]ethyl]-4-[[3-[4-(cyanomethoxy)-2,3-difluoro-phenyl]imidazo[1,2-a]pyrazin-8-yl]amino]-2-ethyl-benzamide formate], with 60 nM.

As to `CCc1cc(Nc2nccn3c(-c4ccc(OCC#N)c(F)c4F)cnc23)ccc1C(=O)NCCNC(=O)CCN` [Example 137, N-[2-(3-aminopropanoyl-amino)ethyl]-4-[[3-[4-(cyanomethoxy)-2,3-difluoro-phenyl]imidazo[1,2-a]pyrazin-8-yl]amino]-2-ethyl-benzamide formate], the IC90 came to 70 nM. Turning to `CCc1cc(Nc2nccn3c(-c4ccc(OCC#N)c(F)c4F)cnc23)ccc1C(=O)NCCNC(=O)[C@@H](N)[C@@H](C)O` [Example 138, N-[2-[[(2S,3R)-2-amino-3-hydroxy-butanoyl]amino]ethyl]-4-[[3-[4-(cyanomethoxy)-2,3-difluoro-phenyl]imidazo[1,2-a]pyrazin-8-yl]amino]-2-ethyl-benzamide formate], the IC90 was determined as 100 nM. For `CCc1cc(Nc2nccn3c(-c4ccc(OC)c(F)c4F)cnc23)ccc1C(=O)NCCNC(=O)CCCCNC(=N)N` [Example 139, 4-[[3-(2,3-difluoro-4-methoxy-phenyl)imidazo[1,2-a]pyrazin-8-yl]amino]-2-ethyl-N-[2-(5-guanidino-pentanoylamino)ethyl]benzamide formate], the IC90 was found to be 60 nM.

Regarding `CCc1cc(Nc2nccn3c(-c4ccc(OCC#N)c(F)c4F)cnc23)ccc1C(=O)NCCNC(=O)[C@@H](N)CCCN` [Example 140, 4-[[3-[4-(cyanomethoxy)-2,3-difluoro-phenyl]imidazo[1,2-a]pyrazin-8-yl]amino]-N-[2-[[(2S)-2,5-diaminopentanoyl]amino]ethyl]-2-ethyl-benzamide formate], the IC90 was determined as 170 nM. `CCc1cc(Nc2nccn3c(-c4ccc(OCC#N)c(F)c4F)cnc23)ccc1C(=O)NCCNC(=O)CCCN` [Example 141, N-[2-(4-aminobutanoylamino)ethyl]-4-[[3-[4-(cyanomethoxy)-2,3-difluoro-phenyl]imidazo[1,2-a]pyrazin-8-yl]amino]-2-ethyl-benzamide formate]: the IC90 stood at 70 nM. For `CCc1cc(Nc2nccn3c(-c4ccc(OCC#N)c(F)c4F)cnc23)ccc1C(=O)NCCNC(=O)CC(O)CN` (stereo not drawn) [Example 142, N-[2-[(4-amino-3-hydroxy-butanoyl)amino]ethyl]-4-[[3-[4-(cyanomethoxy)-2,3-difluoro-phenyl]imidazo[1,2-a]pyrazin-8-yl]amino]-2-ethyl-benzamide formate], the IC90 was determined as 130 nM.
